Measurements published in patent US20080318268A1, “Devices and Methods for the Selection of Agents with Efficacy Against Biofilm” (priority 2005, published 2008).
Read-outs that look alike come from different tables or passages of the source.

Assays:
Candida biofilms = assay: Minimum biofilm eradication concentration assay, Candida spp. biofilms; format: cell-based
Protocol: (§1) Three clinical isolates of Candida were used in this study, including one albicans and two non-albicans species. C. albicans ATCC 14053 was obtained from the University Of Calgary, Department Of Biological Sciences. C. tropicalis 99916 and C. glabrata 14326 were obtained from the dialysate of patients undergoing continued ambulatory peritoneal dialysis (CAPD). Aspergillus fumigatus was also tested.
Biofilm formation and measurement of antimicrobial sensitivity of Candida and Aspergillus biofilms were performed using an assembly of the present invention. The device features a microtiter plate lid with 96 pegs or projections distributed on the lid. Each peg provided the surface for microorganism to adhere, colonize and form a uniform biofilm. The pegs fit precisely into the wells of a standard 96-well microtiter plate. The lid was used in conjunction with a base having special troughs for growing, washing, and incubating fungi. Colonies of Candida sp. were picked from 24 hour cultures on Sabouraud Dextrose agar (SDA) (BBL Microbiological Systems, Cockeysville, Md.) and placed into Mueller-Hinton Broth (MHB) (Difco Laboratories, Detroit Mich.) such that the suspension matched a McFarland standard of 1.0. This suspension was then diluted 1:30 in MHB, and 25 ml were pipetted into the trough chamber of the base. The closed assembly (lid with pegs positioned on the base) was placed on a Hoeffer Red Rocker (VWR, Scientific) set to rock the plates 3.5 cycles per minute in a 37° C. incubator. C. albicans and C. tropicalis were incubated aerobically, while C. glabrata was incubated in 10% CO2. It was determined in preliminary experiments that C. glabrata required 10% CO2 atmosphere for biofilms to form.
(§2) Biofilm susceptibility testing uses the pegged lid of the assembly, now containing biofilms formed after rocking in the tray for 24 hour. Each peg on the lid was gently washed once in 200 μl of phosphate buffered saline solution (PBSS) in a 96-well microtiter plate (Falcon). The pegged lid was then transferred to another 96 well microtiter plate containing 2 fold dilutions antifungal agent in 200 μl of RPMI 1640 (Sigma, St. Louis, Mo.) or RPMI 1640 containing 1% DMSO (see test drug section). After the pegs were exposed to the drugs for 24 hours, the pegged lid was removed and gently rinsed twice in saline. The pegged lid was then placed on a 96 well plate containing RPMI 1640 recovery medium. The pegs were sonicated for 5 minutes (Candida spp.) or 7 minutes (Aspergillus) in an ultrasonicator to dislodge adherent cells into the recovery medium. Aliquots of 20 μl of the recovery medium were spot plated on SDA (Candida spp) or Rose Bengal Agar (A. fumigatus) to obtain the MBEC. The assembly was also used to determine the minimum inhibitory concentration (MIC) and minimum fungicidal concentration (MFC). The turbidity of the wells that contained the antibiotic and planktonic cells which were shed from the biofilm was measured at 650 nm to obtain the MIC. A 20 μl sample from each well was also spot plated onto Sabouraud Dextrose agar (Candida spp) or Rose Bengal Agar (A. fumigatus) to obtain the MFC.
Drugs tested. Itraconazole, Fluconazole, and Ketoconazole were obtained from Janssen Pharmaceuticals in Brussels, Belgium. Nystatin 5-Fluorocytosine, Griseofulvin, Amphotericin B and Polymyxin B were obtained from Sigma Chemical Co, St. Louis, Mo. […]

planktonic Candida cells = assay: Planktonic antifungal sensitivity of Candida spp.; format: cell-based; conditions: all species tested
Protocol: as §1, §2
Minimum Inhibitory Concentrations (MIC) and Minimum Fungicidal Concentrations (MFC) were determined according to the guidelines of the National Committee for Clinical laboratory Standards (NCCLS). Briefly, Candida sp. were maintained on polystyrene spheres at −70° C. until plating. These organisms were streaked onto Sabouraud Dextrose agar (Microbiologie) plates 24 hours before test initiation. The 24 hour colonies were picked from the agar plates and placed in Muellar-Hinton Broth (MHB, Microbiologie) such that the turbidity matched a McFarland standard of 0.5. This was then diluted 1:10 in MHB to obtain a suspension of approximately 1×10^5 to 5×10^5 CFU/ml. A 5 μl volume of this suspension was added to wells containing 200 μl of antifungal agent serially diluted in RPMI 1640 media (Sigma) in a 96 well microtiter plate (Nunclon). A. fumigatus was maintained as a spore suspension at 4° C. until testing. The spore suspension (50 μl) was diluted into 250 ml of TSB, and 5 μl of this suspension was added to each test well containing dilution of antifungal agent as above.
The test wells were then incubated at 37° C. for 24 hours with the antifungal drugs. MICs for Candida were obtained after incubation by reading the turbidity at 650 nm on a microtiter plate reader (Softmax, VWR). A 20 μl aliquot of each well was also plated (SDA) and MFCs obtained from them after 24 hours incubation at 37° C. MFCs were determined for Aspergillus by plating 100 μl from each well onto Rose Bengal Agar, followed by spreading with a sterile glass spreader. The plated organisms were maintained at 25° C. for three days before colony enumeration.
Drugs tested. Itraconazole, Fluconazole, and Ketoconazole were obtained from Janssen Pharmaceuticals in Brussels, Belgium. Nystatin 5-Fluorocytosine, Griseofulvin, Amphotericin B and Polymyxin B were obtained from Sigma Chemical Co, St. Louis, Mo. 5-Fluorocytosine, polymyxin B sulphate and nystatin were dissolved in double-distilled water to a concentration of 10.24 mg/ml and diluted in the test wells through a range of 1024 μg/ml to 0.125 μg/ml in RPMI. […]

[1] = tested on: planktonic cultures of C. albicans; assay: Planktonic antifungal sensitivity (MIC, MFC) of C. albicans; format: cell-based, Candida albicans
Protocol: as §1
as §2, with “The assembly was also used to determine the minimum inhibitory concentration (MIC) and minimum fungicidal concentration (MFC).” left out, “A 20 μl sample from each well was also spot plated onto Sabouraud Dextrose agar (Candida spp) or Rose Bengal Agar (A. fumigatus) to obtain the MFC.” left out
(§3) Minimum Inhibitory Concentrations (MIC) and Minimum Fungicidal Concentrations (MFC) were determined according to the guidelines of the National Committee for Clinical laboratory Standards (NCCLS). […]
(§4) The test wells were then incubated at 37° C. for 24 hours with the antifungal drugs. MICs for Candida were obtained after incubation by reading the turbidity at 650 nm on a microtiter plate reader (Softmax, VWR). […] MFCs were determined for Aspergillus by plating 100 μl from each well onto Rose Bengal Agar, followed by spreading with a sterile glass spreader. […]

[2] = tested on: invasive pulmonary, sinus and cerebral aspergillosis; conditions: cited from earlier work
[3] = tested on: biofilm cells of C. albicans; assay: Minimum biofilm eradication concentration assay, C. albicans biofilm; format: cell-based, Candida albicans
Protocol: as §1
Biofilm formation and measurement of antimicrobial sensitivity of Candida and Aspergillus biofilms were performed using an assembly of the present invention. The device features a microtiter plate lid with 96 pegs or projections distributed on the lid. Each peg provided the surface for microorganism to adhere, colonize and form a uniform biofilm. The pegs fit precisely into the wells of a standard 96-well microtiter plate. The lid was used in conjunction with a base having special troughs for growing, washing, and incubating fungi. […] It was determined in preliminary experiments that C. glabrata required 10% CO2 atmosphere for biofilms to form.
(§5) Biofilm susceptibility testing uses the pegged lid of the assembly, now containing biofilms formed after rocking in the tray for 24 hour. […] The turbidity of the wells that contained the antibiotic and planktonic cells which were shed from the biofilm was measured at 650 nm to obtain the MIC. […]

[4] = cited from earlier work
C. tropicalis = assay: Planktonic antifungal sensitivity (MIC) of C. tropicalis; format: cell-based, Candida tropicalis; conditions: C. tropicalis strain tested
Protocol: as §1
as §5, with “hour. Each peg on the lid was gently washed once in 200 μl of phosphate buffered saline solution (PBSS) in a 96-well microtiter plate (Falcon).” for “hour.”
as §3, §4

[5] = planktonic cultures of C. albicans

C[C@@H]1[C@H](O)[C@@H](C)/C=C/C=C/C=C/C=C/C=C/C=C/C=C/[C@H](O[C@@H]2O[C@H](C)[C@@H](O)[C@H](N)[C@@H]2O)C[C@@H]2O[C@](O)(C[C@@H](O)C[C@@H](O)[C@H](O)CC[C@@H](O)C[C@@H](O)CC(=O)O[C@H]1C)C[C@H](O)[C@H]2C(=O)O [amphotericin B, Amphotericin B]
MBEC (Candida biofilms; Candida biofilms): 16 µg/mL | effectiveness against Candida growing as a biofilm (Candida biofilms; biofilm (sessile) Candida): most effective agents | effectiveness in killing planktonic Candida cells (planktonic Candida cells): effective | average MFC [1, 5]: 0.02 µg/mL | average MIC [1, 5]: 0.09 µg/mL | cases that show any response ([2]; 14 days of treatment): 54% | crude mortality rate ([2]; patients treated for invasive cerebral aspergillosis): 99% | crude mortality rate ([2]; patients treated for invasive pulmonary aspergillosis): 86% | crude mortality rate ([2]; patients treated for invasive sinus aspergillosis): 66% | average concentration required to kill biofilm cells [3]: 12 µg/mL | peak permissible human serum concentrations [4]: 2 µg/mL

OC(Cn1cncn1)(Cn1cncn1)c1ccc(F)cc1F [fluconazole, Fluconazole]
effectiveness in killing planktonic Candida cells (planktonic Candida cells): effective | classification by fluconazole MIC criterion (less than or equal to 8 μg/ml = susceptible) ([1]; C. albicans strain tested): susceptible | classification by fluconazole MIC criterion (less than or equal to 8 μg/ml = susceptible) (C. tropicalis): susceptible
